Tested on: CAM
Experiment: chorioallantoic membrane (CAM) model of antiangiogenic effect
Format: in vivo, chicken
Settings: for antiangiogenic effect on CAM: effect class by scoring system of Table 1, 50 µg/pellet; for Score: average antiangiogenic score on CAM, evaluated by stereomicroscope 24 hours after pellet application
Text: In a study performed on the antiangiogenic effect of palladium complex of the invention, a method which is named chorioallantoic membrane (CAM) model is used. The model in question is a method developed by the embryologists more than 50 years ago, has a broad area of usage in embryonic researches (Auerbach, R., Lewis, R., Shinners, B., Kubai, L., Akhtar, N., 2003. Angiogenesis assays: a critical overview. Clin. Chem., 49(1): 32-40). Since 1956, the model is used in cancer and metastasis researches. The model has been started to be used in angiogenesis studies by Folkman in 1976. CAM is a non-embryo membrane which is formed by the merger of chorion and allantois as a result of an incubation of four-days. Although it is widely used in embryonic researches, it also has a broad range of usage in cancer and metastasis researches (Ribatti, D., 2010. The inefficacy of antiangiogenic therapies. J. Angiogenes. Res., 2:27. doi: 10.1186/2040-2384-2-27). […] The method is one of the most commonly used methods since it is quick, cheap and semi quantitative and enable scanning of many new agents (Cimpean, A.M., Ribatti, D., Raica, M., 2008. The chick embryo chorioallantoic membrane as a model to study tumor metastasis. Angiogenesis, 11(4): 311-319; Ribatti, D., 2008. Chick embryo chorioallantoic membrane as a useful tool to study angiogenesis. Int. Rev. Cell Mol. Biol., 270: 181-224).
The experiment Protocol which was reported in 1967 by D'Arcy and Howard and in 2002 by Bürgermeister and his colleagues was used (D'Arcy, P.F., Howard, E.M.,1967. A new anti-inflammatory test, utilizing the chorio-allantoic membrane of the chick embryo. Br. J. Pharmacol. Chemother., 29(3): 378-38; Bürgermeister, J., Paper, D.H., Vogl, H., Linhardt, R.J., Franz, G., 2002. LaPSvS1, a (1-->3)-beta-galactan sulfate and its effect on angiogenesis in vivo and in vitro. Carbohydr. Res., 337(16): 1459-1466).
The palladium complex, 5 mg/ml (50 µg /pellet), the standard control agents sodium dodecyl sulfate (SDS), cortisone, prednisone, (±)-thalidomide has been suspended in 2,5 % (w/v) agar at a final concentration of 50 µg /pellet by heating (60 °C<). Then, 10 µl is taken from this suspension and provided to become frozen pellet at room temperature by being applied on stainless steel cylinder supports with a diameter 5 mm. Pellets are applied onto the surface of CAM.
The procedure for CAM experiment is given in Figure 1 (Kiyan, H.T., 2010. Baz ? Hypericum Türlerinin Uçucu Yaǧ Bile ? imleri ve Antianjiyojenik Aktiviteleri, Yüksek Lisans Tezi, Anadolu Üniversitesi, Saǧl ? k Bilimleri Enstitüsü, Farmakognozi Program ? , 19p). Accordingly, fertilized chicken eggs to be used in experiment are incubated at 36,5 °C and in an incubator with 80% relative humidity (climatization cabin) at horizontal position for 72 hours before the experiment. In this period, eggs were carefully upturned time to time. At the end of the incubation period, firstly, from the bottom side of eggs with the help of the sterile injectors, 10-15 ml of albumin (egg white) is slowly removed and then from the top side of eggs (more upright and sharp part), shell and membrane are carefully removed with the help of the forceps (Figure-1, A). Living and developing embryo CAM immediately taken under protection with a stretch film, is waited again at 36,5 °C and in an incubator with 80% relative humidity for another 72 hours (Figure-1, B). When diameter of the CAM is detected to be approximately 2 cm, one piece of freshly prepared sample pellet for each egg is placed into the capillaries on the CAM (Figure-1, C). 15 pellets from each material is applied on CAM of an equal number of eggs and covered with stretch film. Before the evaluations, eggs were incubated for another 24 hours in such a way that pellets are placed in under specified conditions. […]

Structure (SMILES)	toxic or irritant effect on CAM (50 µg/pellet)	antiangiogenic effect on CAM	Score (50 µg/pellet)	Irritation (%) (CAM, 50 µg/pellet, 24 hours after pellet application)
O=C1c2ccccc2S(=O)(=O)[N]1[Pd-2]12[n+]3ccccc3-c3cccc([n+]31)-c1cccc[n+]12 [Palladium complex, [Pd(sac)(terpy)] (sac)•4H2O (sac=saccharinate and terpy=2,2':6',2"-terpyridine)]]	no toxic or irritant effect	very strong	–	–
C[C@]12C=CC(=O)C=C1CC[C@@H]1[C@@H]2C(=O)C[C@@]2(C)[C@H]1CC[C@]2(O)C(=O)CO [Prednisone]	–	strong	0.9 ± 0.7	–
C[C@]12CCC(=O)C=C1CC[C@@H]1[C@@H]2C(=O)C[C@@]2(C)[C@H]1CC[C@]2(O)C(=O)CO [Cortisone]	–	very strong	1.2 ± 0.2	–
O=C1CCC(N2C(=O)c3ccccc3C2=O)C(=O)N1 (racemic) [(±)-Thalidomide]	–	strong	0.9 ± 0.2	–
CCCCCCCCCCCCOS(=O)(=O)[O-].[Na+] [Sodium dodecyl sulphate (SDS), Sodium dodecyl sulphate]	irritant effect	–	0.1 ± 0.1	87 ± 5%
